According to ChEMBL document CHEMBL1201862, “PubChem BioAssay data set” (2004):
Counter-ions that a name gives are not always drawn.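 Dose response: 5 concentrations. Exposure: 48 h. Format: 96-well plates. Endpoint: linear interpolation; highest concentration if not reached. Abbreviation: GI50, concentration required for 50% inhibition of growth.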 Activity calls are given as the source filed them. Rule as the data show it: active = GI50 up to about 1.1 µM and inactive = higher.

Key:
Assay in all cases: NCI anticancer screen, dose series, 48 h
[1] = test system: ACHN
[2] = test system: SF-268
[3] = test system: SK-MEL-2
[4] = test system: EKVX
[5] = test system: U-251
[6] = test system: OVCAR-3
[7] = test system: CCRF-CEM
[8] = test system: IGROV-1
[9] = test system: MCF7
[10] = test system: SW-620
[11] = test system: Malme-3M
[12] = test system: DU-145
[13] = test system: SNB-19
[14] = test system: OVCAR-8
[15] = test system: SK-MEL-5
[16] = test system: DLD-1
[17] = test system: LXFL 529
[18] = test system: DMS-114
[19] = test system: M19-MEL

Structure (SMILES) | GI50 [1] | GI50 [2] | GI50 [3] | GI50 [4] | GI50 [5] | GI50 [6] | GI50 [7] | GI50 [8] | GI50 [9] | GI50 [10] | GI50 [11] | GI50 [12] | GI50 [13] | GI50 [14] | GI50 [15] | GI50 [16] | GI50 [17] | GI50 [18] | GI50 [19]
COc1cccc2c(Nc3ccc(S(=O)(=O)NC(C)=O)cc3)c3ccc([N+](=O)[O-])cc3nc12 | 26.2 µM (inactive) | 25.1 µM (inactive) | 49.9 µM (inactive) | 40.6 µM (inactive) | 23.7 µM (inactive) | 32.5 µM (inactive) | 55.5 µM (inactive) | 11.3 µM (inactive) | 13.1 µM (inactive) | 45.7 µM (inactive) | 33.9 µM (inactive) | > 70.3 µM (inactive) | > 45 µM (inactive) | 27.7 µM (inactive) | 22.7 µM (inactive) |  |  |  | 
Cn1c(CCC#N)nc2ccc(Br)cc2c1=O | > 100 µM (inactive) | > 100 µM (inactive) | > 100 µM (inactive) | > 100 µM (inactive) | > 100 µM (inactive) |  | 51.9 µM (inactive) | > 100 µM (inactive) |  | > 100 µM (inactive) | > 100 µM (inactive) |  |  | > 100 µM (inactive) | > 100 µM (inactive) | > 100 µM (inactive) | > 100 µM (inactive) | > 100 µM (inactive) | 
O=C(O)CCSC(=O)Nc1ccccc1 | 97.9 µM (inactive) | 44.8 µM (inactive) | > 100 µM (inactive) | > 100 µM (inactive) | > 100 µM (inactive) | > 100 µM (inactive) | > 100 µM (inactive) | 94.6 µM (inactive) |  | 92.9 µM (inactive) |  |  | > 100 µM (inactive) | > 100 µM (inactive) |  | > 100 µM (inactive) | 61.9 µM (inactive) |  | 
C[n+]1c2ccccc2c(CNc2ccc(S(=O)(=O)N=C(N)N)cc2)c2ccccc21 | 6.95 µM (inactive) | 7.06 µM (inactive) | 24.8 µM (inactive) | 21 µM (inactive) | 5.14 µM (inactive) | 19.8 µM (inactive) | 1.45 µM (inactive) | 16.3 µM (inactive) |  | 6.95 µM (inactive) | 13.6 µM (inactive) |  | 4.05 µM (inactive) | 9.66 µM (inactive) | 6.92 µM (inactive) | 17.3 µM (inactive) |  | 2.65 µM (inactive) | 14.5 µM (inactive)
O=C(N/N=C\c1ccc(Cl)cc1)Nc1ccc2ccccc2c1 | 43.6 µM (inactive) | 26.9 µM (inactive) | 80.4 µM (inactive) | 64.9 µM (inactive) | 23.9 µM (inactive) | > 100 µM (inactive) | > 100 µM (inactive) | 61.5 µM (inactive) | 87.9 µM (inactive) | 46.2 µM (inactive) | 32.8 µM (inactive) | > 100 µM (inactive) | 30.4 µM (inactive) | 27.4 µM (inactive) | > 100 µM (inactive) |  |  |  | 
CC(=O)O/C(=C(/C#N)C(=O)O)C1C(C(=O)O)C(c2ccccc2[N+](=O)[O-])C=C(c2ccco2)N1c1ccncc1 (stereo unspecified) | 2.17 µM (inactive) | 9.23 µM (inactive) | 9.25 µM (inactive) | 9.25 µM (inactive) | 2.11 µM (inactive) | 2.94 µM (inactive) | 2.43 µM (inactive) | 1.12 µM (inactive) | 1.03 µM (active) | 1.85 µM (inactive) | 8.43 µM (inactive) | 8.49 µM (inactive) | 11.8 µM (inactive) | 5.02 µM (inactive) | 2.94 µM (inactive) |  |  |  | 
COc1ccc(CNc2nc(NC3CCCCC3)nc(NC3CCCCC3)n2)cc1 | 5.35 µM (inactive) | 6.46 µM (inactive) | 11.4 µM (inactive) | 4.78 µM (inactive) | 4.06 µM (inactive) | 11.3 µM (inactive) | 4.63 µM (inactive) | 4.76 µM (inactive) | 3.78 µM (inactive) | 4.19 µM (inactive) | 9.25 µM (inactive) | 5.6 µM (inactive) | > 100 µM (inactive) | 15.4 µM (inactive) | 3.56 µM (inactive) |  |  |  | 
C[C@]12CC[C@H](O)CC1=CC[C@@H]1C2CC[C@]2(C)NC(=O)C(C#N)CC12 (stereo partly specified) | 28.6 µM (inactive) |  | > 100 µM (inactive) | > 100 µM (inactive) | > 100 µM (inactive) | > 100 µM (inactive) | > 100 µM (inactive) | > 100 µM (inactive) |  | > 100 µM (inactive) | > 100 µM (inactive) |  |  | > 100 µM (inactive) | > 100 µM (inactive) | > 100 µM (inactive) | > 100 µM (inactive) | > 100 µM (inactive) | > 100 µM (inactive)
O=S1(=O)OCCOS(=O)(=O)C1I |  | 92.5 µM (inactive) | > 100 µM (inactive) | > 100 µM (inactive) |  | > 100 µM (inactive) | 86.9 µM (inactive) | > 100 µM (inactive) |  | > 100 µM (inactive) | > 100 µM (inactive) |  | 77.4 µM (inactive) | > 100 µM (inactive) | 66.8 µM (inactive) | > 100 µM (inactive) | > 100 µM (inactive) | > 100 µM (inactive) | > 100 µM (inactive)
CC(=O)OCC12C(OC(C)=O)C[C@@H](C)C3(CC(c4ccoc4)OC3=O)C1CCC(OC(C)=O)C21CO1 (stereo partly specified) | > 100 µM (inactive) | > 100 µM (inactive) | > 100 µM (inactive) | > 100 µM (inactive) | > 100 µM (inactive) | > 100 µM (inactive) | > 100 µM (inactive) | > 100 µM (inactive) | > 100 µM (inactive) | > 100 µM (inactive) | > 100 µM (inactive) | > 100 µM (inactive) | > 100 µM (inactive) | > 100 µM (inactive) | > 100 µM (inactive) |  |  |  | 
C[C@H]1NC(=O)C2CCCCN2C(=O)CN(C)C(=O)CNC(=O)C2CCCCN2C(=O)[C@@H](NC(=O)c2nc3ccccc3cc2O)[C@@H](C)NC(=O)C2CCCCN2C(=O)CN(C)C(=O)CNC(=O)[C@@H]2CCCCN2C(=O)C1NC(=O)c1nc2ccccc2cc1O (stereo partly specified) | 0.232 µM (active) | 0.186 µM (active) | 0.0817 µM (active) | 0.668 µM (active) | 0.0153 µM (active) | 0.209 µM (active) | 1.02 µM (active) | 0.283 µM (active) |  | 0.225 µM (active) | 0.182 µM (active) |  | 0.241 µM (active) | 0.193 µM (active) | 0.155 µM (active) |  | 0.14 µM (active) | 0.23 µM (active) | 0.181 µM (active)
CN1OC2OC(=O)OC2[C@H]1[C@H]1O[C@H](c2ccccc2)OC1(C)c1cc(OC(=O)c2ccccc2)ccc1OC(=O)c1ccccc1 (stereo partly specified) | > 50 µM (inactive) | > 50 µM (inactive) | > 50 µM (inactive) | > 50 µM (inactive) | > 50 µM (inactive) | > 50 µM (inactive) | > 50 µM (inactive) | > 50 µM (inactive) |  | > 50 µM (inactive) | > 50 µM (inactive) |  | > 50 µM (inactive) | > 50 µM (inactive) | > 50 µM (inactive) | > 50 µM (inactive) | > 50 µM (inactive) | > 50 µM (inactive) | > 50 µM (inactive)
CCc1ccc2c(c1)N(CC(C)CN(C)C)c1ccccc1S2 (stereo unspecified) [ETYMEMAZINE HYDROCHLORIDE] | 5.21 µM (inactive) | 7.5 µM (inactive) | 5.08 µM (inactive) | 11.4 µM (inactive) | 5.12 µM (inactive) | 4.88 µM (inactive) | 2.18 µM (inactive) | 4.98 µM (inactive) | 3.92 µM (inactive) | 5.53 µM (inactive) | 4.11 µM (inactive) | 7.91 µM (inactive) | 10.6 µM (inactive) | 7.94 µM (inactive) | 3.78 µM (inactive) |  |  |  | 
